Results published in patent publication US20100099770A1, “METHOD FOR TREATING DIABETIC PERIPHERAL NEUROPATHIC PAIN” (SCHWARZ PHARMA AG, priority 2001, published 2010).
Marks after values point to notes of the source that are not given here.

How the values were obtained:
[1] = tested on: formalin-induced nociception (paw licking); assay: Subchronic inflammatory nociception in mice (formalin test); format: in vivo; details: for nociceptive threshold, early phase: 0-5 min after formalin (acute pain); for nociceptive threshold, late phase: 20-30 min after formalin (subchronic inflammatory pain); for effect on formalin-induced nociceptive response (in words): 10, 20, 40 mg/kg i.p.
Protocol: Subchronic inflammatory nocicpetion in mice was induced by the subplantar injection of formalin (0.02 ml of a 5% solution). Nociceptive behaviour (paw licking) was measured and quantified between 0 and 5 min (acute pain) and between 20 and 30 min (subchronic inflammatory pain) after formalin.
Drugs and experimental design: SPM 927 and GBP were suspended in 1% methylcellulose and administered i.p. at doses of 10 mg/kg, 20 mg/kg and 40 mg/kg. Pre-treatment time was 30 min before pain measurement. One group of animals served as controls and consequently received an injection of solvent (10 ml/kg) and another group of animals received a reference compound (Carrageenan test: 10 mg/kg indomethacin; Formalin test: 10 mg/kg morphine). Each compound was tested in a separate experiment and each experiment included a control and a reference group. 10 rats per group were used in the Carrageenan test and 6 mice per group in the formalin test.

[2] = tested on: neuropathic pain (CHUNG), thermal stimulation; assay: Neuropathic pain (CHUNG) test, thermal stimulation on lesioned paw; format: in vivo, rat; details: for PAW-WITHDRAWAL LATENCY, % change: compared with lesioned control; for PAW-WITHDRAWAL LATENCY, mean ± s.e.m.: lesioned paw
Excerpt: The following Tables 8 and 9 show the effects of harkoseride (hereinafter referred tows SPM 927), carbamazepine, levetiracetam, gabapentin and morphine in the neuropathic pain (CHUNG) test in the rat. Eight (8) rats per group were used.

[3] = tested on: formalin-induced tonic inflammatory nociceptive behaviour; assay: Formalin test, rat (weighted behavioural scoring); format: in vivo; details: for Weighted pain score: score 0-3, ±SEM; for effect on formalin-induced nociceptive behaviour (in words): i.p. just prior to formalin, 5-40 mg/kg, late phase
Protocol: The formalin test is a chemically-induced tonic pain model in which biphasic changes of nociceptive behaviour are assessed and spinal/supraspinal plasticity of nociception is considered as a molecular basis for neuropathic pain particularly during the second (=late) phase of the test, during which most clinically used drugs against neuropathic pain are active.
The compound was tested for anti-nociceptive properties by use of the weighted behavioural scoring method: Freely moving animals underwent observational assessment of the position of the left hind paw according to a rating score scaled 0-3 before and 10, 20, 30 and 40 min after injection of 0.05 ml of sterile 2.5% formalin under the skin on the dorsal surface of the paw.

COC[C@@H](NC(C)=O)C(=O)NCc1ccccc1 [SPM 927, (R)-2-Acetamido-N-benzyl-3-methoxypropionamide] was tested, and the “nociceptive threshold, early phase” value ([1]; 10 mg/kg i.p.) was 67 ± 15 s, the “nociceptive threshold, late phase” value ([1]; 10 mg/kg i.p.) was 58 ± 16^a s and the “nociceptive threshold, early phase” value ([1]; 20 mg/kg i.p.) was 69 ± 8 s. The “nociceptive threshold, late phase” value ([1]; 20 mg/kg i.p.) was 128 ± 16 s, the “nociceptive threshold, early phase” value ([1]; 40 mg/kg i.p.) was 8 ± 8^a s and the “nociceptive threshold, late phase” value ([1]; 40 mg/kg i.p.) was 17 ± 17^a s. For the same compound, the “effect on formalin-induced nociceptive response (in words)” value [1] was “near complete reversal”, the “effect on formalin-induced nociceptive response (in words)” value ([1]; listed as SPM-927) was “dose dependently suppressed” and the “PAW-WITHDRAWAL LATENCY, % change” value ([2]; 8 mg/kg i.p. -30 min) was “+60% (b)”. For the same compound, the “PAW-WITHDRAWAL LATENCY, mean ± s.e.m.” value ([2]; 8 mg/kg i.p. -30 min) was 26.1 ± 5.4 NS (b) sec, the “PAW-WITHDRAWAL LATENCY, % change” value ([2]; 16 mg/kg i.p. -30 min) was “+3% b)” and the “PAW-WITHDRAWAL LATENCY, mean ± s.e.m.” value ([2]; 16 mg/kg i.p. -30 min) was 16.8 ± 4.5 NS (b) sec. For the same compound, the “PAW-WITHDRAWAL LATENCY, % change” value ([2]; 32 mg/kg i.p. -30 min) was “+29% (b)”, the “PAW-WITHDRAWAL LATENCY, mean ± s.e.m.” value ([2]; 32 mg/kg i.p. -30 min) was 21.1 ± 5.6 NS (b) sec and the Weighted pain score ([3]; 5 mg/kg i.p., 10 min after formalin) was 0.31 ± 0.11. It also gave a Weighted pain score ([3]; 5 mg/kg i.p., 20 min after formalin) of 0.78 ± 0.23, a Weighted pain score ([3]; 5 mg/kg i.p., 30 min after formalin) of 1.47 ± 0.20 and a Weighted pain score ([3]; 5 mg/kg i.p., 40 min after formalin) of 1.46 ± 0.19. The Weighted pain score ([3]; 10 mg/kg i.p., 10 min after formalin) was 0.42 ± 0.17, the Weighted pain score ([3]; 10 mg/kg i.p., 20 min after formalin) was 0.33 ± 0.16 and the Weighted pain score ([3]; 10 mg/kg i.p., 30 min after formalin) was 1.02 ± 0.27. It also gave a Weighted pain score ([3]; 10 mg/kg i.p., 40 min after formalin) of 1.05 ± 0.19, a Weighted pain score ([3]; 20 mg/kg i.p., 10 min after formalin) of 0.48 ± 0.18 and a Weighted pain score ([3]; 20 mg/kg i.p., 20 min after formalin) of 0.57 ± 0.14. For the same compound, the Weighted pain score ([3]; 20 mg/kg i.p., 30 min after formalin) was 0.78 ± 0.18, the Weighted pain score ([3]; 20 mg/kg i.p., 40 min after formalin) was 1.02 ± 0.24 and the Weighted pain score ([3]; 40 mg/kg i.p., 10 min after formalin) was 0.12 ± 0.05. For the same compound, the Weighted pain score ([3]; 40 mg/kg i.p., 20 min after formalin) was 0.10 ± 0.04, the Weighted pain score ([3]; 40 mg/kg i.p., 30 min after formalin) was 0.09 ± 0.06 and the Weighted pain score ([3]; 40 mg/kg i.p., 40 min after formalin) was 0.12 ± 0.06. The “effect on formalin-induced nociceptive behaviour (in words)” value ([3]; listed as Harkoseride) was “dose dependant reduction” and the “effect on formalin-induced nociceptive behaviour (in words)” value ([3]; listed as harkoseride) was “Significant and dose dependent efficacy”.
